# Results reported in patent US12661347B2 (Dr. Falk Pharma GmbH, priority 2020, dated 2026).
# Where two headings read alike, the source gives them in different places.
# Columns and labels:
# TG2 = target: T1, TG2 (Homo sapiens, UniProt P21980); experiment: Correlation of human pharmacokinetic data with in vitro TG2 inhibition (TG2-mediated deamidation of gluten)
# T1 sequence (P21980 1-687): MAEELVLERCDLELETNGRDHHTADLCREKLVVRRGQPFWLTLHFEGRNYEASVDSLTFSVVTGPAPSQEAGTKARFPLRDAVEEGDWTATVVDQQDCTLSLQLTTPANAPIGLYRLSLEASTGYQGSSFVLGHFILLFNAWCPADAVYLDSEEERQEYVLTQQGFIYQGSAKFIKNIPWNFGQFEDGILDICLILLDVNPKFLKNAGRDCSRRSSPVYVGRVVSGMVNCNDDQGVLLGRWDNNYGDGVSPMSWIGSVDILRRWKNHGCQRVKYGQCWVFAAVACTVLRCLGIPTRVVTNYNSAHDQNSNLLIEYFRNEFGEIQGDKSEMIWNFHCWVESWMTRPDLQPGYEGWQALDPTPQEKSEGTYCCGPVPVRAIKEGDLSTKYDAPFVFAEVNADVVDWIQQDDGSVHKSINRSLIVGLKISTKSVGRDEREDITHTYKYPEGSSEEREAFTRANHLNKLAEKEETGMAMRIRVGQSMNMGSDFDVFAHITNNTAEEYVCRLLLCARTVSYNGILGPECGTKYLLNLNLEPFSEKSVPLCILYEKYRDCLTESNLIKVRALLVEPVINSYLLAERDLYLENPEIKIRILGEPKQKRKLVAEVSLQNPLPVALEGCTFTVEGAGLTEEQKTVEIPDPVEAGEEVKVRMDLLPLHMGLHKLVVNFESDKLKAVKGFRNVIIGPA
# From the text: For the estimation of the therapeutic effective human dose, the drug concentration determined in vivo is compared with the drug concentrations resulting in an inhibition of the enzyme activity of TG2 in vitro (FIG. 2). Thereby, the TG2-mediated deamidation of gluten serves as a marker reaction. […] The 90% inhibition at IC90 can be regarded as maximal pharmacodynamic effect.
# [1] = test system: adult patients with Celiac Disease (CeD); experiment: 6-week treatment of adult Celiac Disease patients challenged with 3 g daily gluten, placebo-controlled; format: in vivo, human
# Procedure: Patients, who were in clinical and histological remission at start of the study were challenged with 3 grams daily gluten intake and randomized to receive placebo or one of 3 doses of the compound of formula (I), i.e. 10 mg, 50 mg or 100 mg.
# Each morning after at least 6 hours of fasting, patients took the study drug orally, followed by one biscuit containing 3 g of gluten 30 minutes later, before breakfast. Throughout the 6-week study, patients were required to continue their strict gluten free diet.
# The primary endpoint of the study was, whether the compound of formula (I) could prevent gluten-induced change in intestinal mucosal morphology. Before start (baseline) and after end of the 6 weeks of treatment endoscopies were conducted by an experienced gastroenterologist. Four endoscopy forceps biopsy samples with one biopsy bite per pass were taken from the second and third part of the duodenum and preserved in a PAXgene fixative containers. Tissue slides of the biopsies were scanned as whole-slide images and the villous height (VH) and crypt depth (CrD) in the mucosal samples were measured. In addition, the density of CD3+ intra-epithelial lymphocytes (IELs), an indicator of inflammation, was counted. Symptoms of CeD the patients were recorded by patient-reported outcomes (PROs) and measured by the Celiac Symptom Index (CSI) (Ref1) and Celiac Disease Questionnaire (CDQ) (Ref2).
# [2] = Simulation of the gastrointestinal tract, transfer model (donor medium to FaSSIF acceptor medium); format: physicochemical
# Procedure: The solubility of the dose as well as the dissolution velocity under physiological conditions are critical parameters for the oral availability at the target site.
# The transfer model consists of a vessel with 125 ml donor medium and a vessel with 500 m acceptor medium. The donor medium is transferred by means of pump (Piston pump Sotax CP7) in the acceptor medium so that 625 ml liquid is present in the acceptor vessel at the end of the experiment. The transfer rate amounts 10 ml/min. The donor medium is an artificial gastric juice in a sober state, and contains 34.2 mM sodium chloride (NaCl) in 0.1 hydrogen chloride (HCl). The acceptor medium consists of artificial […] in a sober state (FaSSIF) and contains 3 mM sodium taurocholate, and […] lecithine in phosphate buffer with a pH-value of 6.5. The temperature of the acceptor medium is adjusted to 37.5° C.±0.5° C. For the simulation of the gastrointestine motility, the acceptor medium is stirred continuously with a stirring paddle (50 rpm). A calibrated stirring paddle apparatus 2 according to the conditions of the USP (Sotax AT7 Smart) as an acceptor vessel is used. In FIG. 5, a scheme of the apparatus is illustrated.
# The capsule was added to the donor medium.
# [3] = Saturation solubility in the pH-range 1 to 6.8 (HPLC/UV); format: physicochemical
# [4] = Pharmacokinetic after oral administration of the systemic formulation in healthy volunteers (plasma, HPLC-MS/MS); format: in vivo, human
# Procedure: The pharmacokinetic of (S,E)-methyl-7-(1-(2-(2-ethylbutylamino)-2-oxoethyl)-2-oxo-1,2-dihydro-pyridin-3-ylamino)-6-(1-methyl-1H-imidazole-5-carboxamido)-7-oxohept-2-enoate (compound of formula (I)) was investigated in healthy volunteers. Cohorts of 18 subjects each were treated with an oral daily dose of 10, 20, 50 and 100 mg compound of formula (I), respectively over a time period of 7 days.
# The determination of said compound in blood plasma was performed by means of a previously validated HPLC-MS/MS method.
# [5] = target: T2, small intestinal tissue transglutaminase (TG2) (Mus musculus, UniProt P21981); conditions: plain, unformulated compound, cited from earlier work
# T2 construct: from tissue; host or cells: small intestine (jejunum) and colon of the treated animals
# T2 sequence (P21981 1-686): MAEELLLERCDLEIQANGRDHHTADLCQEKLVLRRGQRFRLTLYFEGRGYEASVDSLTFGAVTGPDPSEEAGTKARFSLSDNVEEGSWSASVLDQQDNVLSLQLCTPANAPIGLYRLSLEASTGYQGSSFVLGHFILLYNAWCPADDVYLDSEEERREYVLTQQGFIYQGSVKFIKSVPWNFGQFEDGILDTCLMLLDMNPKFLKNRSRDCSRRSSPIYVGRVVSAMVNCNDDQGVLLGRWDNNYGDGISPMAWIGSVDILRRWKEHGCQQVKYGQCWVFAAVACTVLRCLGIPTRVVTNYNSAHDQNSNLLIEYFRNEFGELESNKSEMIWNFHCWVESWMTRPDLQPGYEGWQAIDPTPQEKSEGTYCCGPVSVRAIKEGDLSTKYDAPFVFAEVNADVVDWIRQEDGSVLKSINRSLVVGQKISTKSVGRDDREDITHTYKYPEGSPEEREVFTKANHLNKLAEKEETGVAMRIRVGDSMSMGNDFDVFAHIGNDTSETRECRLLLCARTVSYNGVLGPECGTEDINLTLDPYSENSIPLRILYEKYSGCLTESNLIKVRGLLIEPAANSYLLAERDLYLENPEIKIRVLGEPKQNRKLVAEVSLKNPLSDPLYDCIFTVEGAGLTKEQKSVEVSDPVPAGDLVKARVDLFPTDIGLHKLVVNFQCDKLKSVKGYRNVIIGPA
# [6] = Side effects in humans at doses of up to 500 mg; format: in vivo
# Procedure: Moreover, side effects related to potential off-target actions were not observed in humans even at doses of up to 500 mg. As aforementioned, this is particularly surprising due to the fact that TG2 is ubiquitously expressed in almost all cell types and cell compartments, it is present on the cell surface and gets secreted to the extracellular matrix, and is present in various organs, and thus it could be envisioned that off-target effects would be most likely.
# [7] = Comparison of Cmax of the formulation (human) with the plain compound (animals), doses as human-equivalent-dose; format: in vivo, human; monkeys, pigs, rabbits, rats and mice; conditions: formulation in human vs drug as suspension in animals
# Procedure: Due to regulatory and ethical reasons pharmacokinetic data with the plain compound were only generated in animals but not in human subjects. The pharmacokinetic data of the plain compound were derived from several studies in monkeys, pigs, rabbits, rats and mice. In all studies the compound was administered orally after suspension in 0.5% (w/v) methylcellulose in water, pH 5±0.5. Blood samples were taken at various time points within 24 h after drug administration and quantified by means of a previously validated HPLC-MS/MS method. […] In order to compile the data from different species, doses were converted into human-equivalent-dose (HED) taking into account differences in the body surface area between species. The widely accepted species-specific conversion factors defined in the FDA guideline “Estimating the Maximum Safe Starting Dose in Initial Clinical Trials for Therapeutics in Adult Healthy Volunteers” (Issue date 2005) were used.
smiles,measurement,setting,value
"CCC(CC)CNC(=O)Cn1cccc(NC(=O)[C@H](CC/C=C/C(=O)OC)NC(=O)c2cncn2C)c1=O [(S,E)-methyl-7-(1-(2-(2-ethylbutylamino)-2-oxoethyl)-2-oxo-1,2-dihydro-pyridin-3-ylamino)-6-(1-methyl-1H-imidazole-5-carboxamido)-7-oxohept-2-enoate]",dose sufficient to achieve a therapeutic effective drug concentration,TG2; human,20 to 50 mg
"CCC(CC)CNC(=O)Cn1cccc(NC(=O)[C@H](CC/C=C/C(=O)OC)NC(=O)c2cncn2C)c1=O [compound of formula (I), (S,E)-methyl-7-(1-(2-(2-ethylbutylamino)-2-oxoethyl)-2-oxo-1,2-dihydro-pyridin-3-ylamino)-6-(1-methyl-1H-imidazole-5-carboxamido)-7-oxohept-2-enoate]",effect of gluten on VH:CrD (mucosal deterioration),"[1]; 10 mg dose, baseline to week 6",prevented mucosal deterioration to a lesser degree
same,"CDQ scores, change from baseline to week 6","[1]; 10 mg, 50 mg and 100 mg groups, increase = better quality of life",increased
same,effect of gluten on VH:CrD (villus height-to-crypt depth ratio),"[1]; daily dose 50 mg, baseline to week 6",almost completely prevented the deleterious effect of gluten on VH:CrD
same,effect of gluten on VH:CrD (villus height-to-crypt depth ratio),"[1]; daily dose 100 mg, baseline to week 6",almost completely prevented the deleterious effect of gluten on VH:CrD
same,gluten-induced symptoms and quality of life,[1]; hard gelatine capsule formulation of example 2,significantly improved
same,safety profile (frequency and severity of adverse events),"[1]; hard gelatine capsule formulation of example 2, 6 weeks",comparable to placebo
same,intestinal mucosal injury,"[1]; hard gelatine capsule formulation of example 2, moderate dose of daily gluten",effectively prevented intestinal mucosal injury
same,solubility,"[2]; FaSSIF (acceptor medium), FaSSIF, phosphate buffer pH 6.5, read-out: solubility in the acceptor medium",200 µg/mL
same,solubility,"[2]; FaSSIF medium, pH 6.5, fassif, thermodynamic from solid, pH-value of 6.5, read-out: saturation solubility of the pure drug",180 µg/mL
same,solubility,"[2]; artificial gastric juice, sober state (donor medium), simulated gastric fluid, 34.2 mM NaCl in 0.1 HCl, read-out: solubility in the donor medium",4400 µg/mL
same,saturation solubility at pH=6.8 (duodenum) compared with pH~1,[3],much lower
same,increase of drug concentration with dose,"[4]; dose range 10-100 mg, formulation",dose-proportionally
same,Tmax,"[4]; human, plasma, oral daily dose 10, 20, 50, 100 mg for 7 days, hard gelatine capsule of example 2, read-out: tmax (maximum of plasma drug level after administration)",~1 h
same,activity of intestinal TG2,[5]; TG2 activated by poly(I:C),reduced the activity of intestinal TG2 to normal levels
same,intestinal inflammation,[5],subdued intestinal inflammation
same,safety of administration,[5],safe
same,drug level in vivo compared with in vitro TG2 inhibition,TG2; dose of 10 mg,half maximal inhibition (IC50) of TG2 is already achieved
same,drug level in vivo compared with in vitro TG2 inhibition,TG2; dose of 50 mg of the new developed formulation,exceeding the IC90
same,side effects related to potential off-target actions,[6],not observed
same,drug concentration normalized to body weight versus animal studies with suspension,[7],remarkably higher
